Assay results reported in patent US20130296331A1, “COMPOSITIONS AND METHODS FOR AMELIORATING RENAL DYSFUNCTION INDUCED BY RENAL HYPOPERFUSION OR ACUTE KIDNEY INJURY” (Technion Research and Development Foundation Ltd., priority 2010, published 2013).

Assays:
[1] = tested on: rats subjected to IAP of 14 mm Hg; settings: rat, in vivo; cited from earlier work
[2] = tested on: rats with decompensated CHF; experiment: Pneumoperitoneum (incremental IAP) in rats with decompensated CHF induced by aorto-caval fistula; type: in vivo, rat; settings: pretreated 10 mg/kg/day for 4 days
From the text: CHF was induced by surgical creation of aorto-caval fistula (ACF) between the abdominal aorta and the vena cava, as schematically shown in FIG. 1. […] Similar pattern was reported in clinical CHF.
(§1) The abdomen was opened via small incision in the lower third between the xiphoid and pubis and the urinary bladder was catheterized for urine collection. A Veress needle was inserted into the abdominal cavity and connected to the CO2 gas supply to maintain intra-abdominal pressure (IAP) at the desired level using a special insufflator (Aesculap, Tuttlingen, Germany). The muscle and skin layers of the abdominal wall were closed separately by silk sutures in an airtight manner (FIG. 2).
(§2) Male Sprague-Dawley rats were organized into several groups. Normal rats, rats with compensated or decompensated CHF (n=12-13), and rats with MI (n=7) were subjected to IAP of 0 (baseline), 7, 10 or 14 mmHg, over 45-60 min for each pressure, followed by deflation period of 60 min (recovery), as illustrated in Scheme 1. Six additional rats with decompensated CHF and seven additional rats with MI were pretreated with the phosphodiesterase type 5 (PDE5) inhibitor Cialis® (tadalafil; 10 mg/kg/day) for 4 days prior to the experiment. Urine flow rate (V), absolute Na^+ excretion (UNaV), glomerular filtration rate (GFR), renal plasma flow (RPF) and blood pressure were determined throughout the experiments.
In this study, the effects of the phosphodiesterase type 5 (PDE5) inhibitor Cialis® (tadalafil), administered as described in Materials and Methods, on the adverse effects of incremental IAP, simulating pneumoperitoneum, on GFR, RPF, urinary flow rate (V), urinary sodium excretion (UNaV) and urinary cGMP excretion (UcGMP), in rats with decompensated CHF were tested.

rats with MI = experiment: Pneumoperitoneum (incremental IAP) in rats with myocardial infarction (LAD occlusion); type: in vivo, rat; settings: pretreated 10 mg/kg/day for 4 days
Description: Rats were anesthetized with a combination of ketamine (87 mg/kg) and xylazine (13 mg/kg), intubated, and mechanically ventilated at a rate of 80-90 cycles per minute with a tidal volume of 1-2 ml/100 gr. MI was induced by the most common method. Specifically, the left anterior descending (LAD) artery was completely and permanently occluded. Consequently, a large area of the left ventricle wall was deprived of its blood supply, and was thus exposed to hypoxia, ischemia, nutrient starvation and other conditions that develop under these circumstances. Seven days after LAD inclusion, the rats were used in the experimental model of pneumoperitoneum described below.
as §1, §2
In this study we tested whether rats with heart failure induced by myocardial infarction (MI) display renal susceptibility to IAP similar to that of rats with CHF induced by the creation of ACF. As expected and shown in FIGS. 9A-9D, rats with MI had lower basal GFR and RPF compared with control animals. […] These adverse effects were more profound in rats with MI as compared with sham controls.

[3] = tested on: rats with ischemic acute kidney injury; experiment: Experimental acute kidney injury induced by warm renal ischemia of 45 min (renal artery clamping); type: in vivo, rat; settings: rats pretreated before renal ischemia of 45 min
Description: Male Sprague Dawley rats weighing 300-350 gr were housed under standardized conditions for 2-3 days. Following an overnight fast, the animals were anaesthetized with an inactin anesthesia (100 mg/kg, IP) and placed on a controlled heating (thermoregulated) table keeping the body temperature at 37° C. Polyethylene tubes (PE50) were inserted into the right carotid artery for blood pressure monitoring and blood sampling, and into the jugular vein for infusion of 0.9% normal saline (0.9% NaCl) at a 1.5 ml/h rate, as well as 2% inulin and 1% para-aminohippuric acid (PAH) at a rate of 1.5 ml/h, by syringe pumps. Arterial blood pressure was continuously monitored with a pressure transducer connected to the carotid arterial line. Additional two catheters were inserted after a supravesical incision into the bladder for urine collection. In order to minimize dehydration, the abdominal area was covered with saline-soaked gauze. After 2 baseline urine collections, the left renal artery and vein were dissected and the perirenal fat was preserved. […] Urinary samples were analyzed for neutrophil gelatinase-associated lipocalcin (NGAL) and kidney injury molecule 1 (KIM-1), two novel biomarkers of renal damage. […] The levels of NGAL and KIM-1 were determined in urine samples prior to acute kidney injury (AKI) and at various time points following renal artery clamping.

SMILES	IAP-induced renal dysfunction (decreased renal excretory function and hypofiltration) [1]	adverse effects of increased IAP on urinary flow rate (V) ([2]; FIG. 7A)	adverse effects of increased IAP on urinary sodium excretion (UNaV) ([2]; FIG. 7B)	inhibitory effect of IAP on urinary cGMP excretion (UcGMP V) ([2]; FIG. 8)	adverse effects of increased IAP on GFR ([2]; IAP 7, 10, 14 mmHg, FIGS. 6A-6B)	adverse effects of increased IAP on RPF ([2]; IAP 7, 10, 14 mmHg, FIGS. 6C-6D)	inhibitory effect of IAP on urinary cGMP excretion (UcGMP V) (rats with MI; FIG. 11)	adverse effects of pneumoperitoneum on GFR (rats with MI; FIGS. 9A-9B)	adverse effects of pneumoperitoneum on RPF (rats with MI; FIGS. 9C-9D)	adverse effects of pneumoperitoneum on urinary flow rate (V) (rats with MI; IAP 14 mmHg, FIG. 10A)	adverse effects of pneumoperitoneum on urinary sodium excretion (UnaV) (rats with MI; IAP 14 mmHg, FIG. 10B)	urinary excretion of NGAL ([3]; FIG. 13A)	urinary excretion of KIM-1 ([3]; FIG. 13B)
O=[N+]([O-])OCC(CO[N+](=O)[O-])O[N+](=O)[O-] [nitroglycerine]	partially ameliorated												
CN1CC(=O)N2[C@H](c3ccc4c(c3)OCO4)c3[nH]c4ccccc4c3C[C@@H]2C1=O [Cialis®, (6R-trans)-6-(1,3-benzodioxol-5-yl)-2,3,6,7,12,12a-hexahydro-2-methyl-pyrazino[1′,2′:1,6]pyrido[3,4-b]indole-1,4-dione]		abolished	abolished	prevented	remarkably attenuated	remarkably attenuated	significantly attenuated	substantially attenuated	substantially attenuated	partially ameliorated	partially ameliorated	significantly attenuated	significantly attenuated
